For test [1], the system named is COX2. Description: Test 3: COX2 expression after oxidative insult (previous test repeated, 3 hours and 24 hours). It counts as cell-based, human. The method, then: (§1) Tests on the capacity of the indicated preparations to prevent oxidative damage, induced in dermal tissue cells, were conducted on human fibroblasts which were isolated then cultivated in a suitable culture medium. Oxidative stress was induced by adding a mixture of 40 mM xanthine and 2 mM hypoxanthine to the culture medium, a mixture with known ability to induce formation of Reactive Oxygen Species (ROS), agents which cause cell damage up to necrosis. The preparations under examination could be added, or not, to the broth at the same time as the xanthine/hypoxanthine mixture. The contact time between the xanthine/hypoxanthine mixture and the preparations was 2 hours, at the end of which the cells were transplanted into a fresh culture medium, i.e. containing neither the stress-inducing mixture nor the substance, then allowed to quiesce for periods of 3 or 24 hours. At the end of the stated period, gene expression of the prostaglandin G/H synthase and cyclooxygenase2 (COX2) enzyme was detected which is indicative of the inflammatory state induced in cells by oxidative stress.

For test [2], the system named is COX2. Nature of the test: Test 2: COX2 expression in human fibroblasts after xanthine/hypoxanthine oxidative stress. The test is classed as cell-based. The conditions noted are these: 24 hours after oxidative stress, insulted human fibroblasts. The method, then: as §1
Expression of COX2 (normalized fluorescence units vs housekeeping gene 18s rRNA) 24 hours after oxidative stress, in “insulted” cells in the presence of curcumin, curcumin complexed with Zn and FDP used separately, and in the presence of the ternary system.

Structures are written as SMILES.

With `C[C@H]1[C@H](C)CC[C@]2(C)CC[C@]3(C)C(=CC[C@@H]4[C@@]5(C)CC[C@@H](O)[C@](C)(C(=O)O)[C@@H]5CC[C@]43C)[C@H]12` [boswellic acid], the “COX2 expression after oxidative insult” value in test [1] (100 μM, 3 hours) is 7.80 normalized fluorescence units vs housekeeping gene 18s rRNA; in test [1] (100 μM, 24 hours), 8.00 normalized fluorescence units vs housekeeping gene 18s rRNA; in test [1] (300 μM, 3 hours) it was 8.10 normalized fluorescence units vs housekeeping gene 18s rRNA; in test [1] (300 μM, 24 hours), 8.90 normalized fluorescence units vs housekeeping gene 18s rRNA.
`O=P(O)(O)OC[C@H]1O[C@@](O)(COP(=O)(O)O)[C@@H](O)[C@@H]1O` [FDP, Fructose 1-6 diphosphate]: the “Expression of COX2” value in test [2] (5 mM) is listed as 7.14 normalized fluorescence units vs housekeeping gene 18s rRNA. Also, the “COX2 expression after oxidative insult” value in test [1] (5 mM, 3 hours) is 7.87 normalized fluorescence units vs housekeeping gene 18s rRNA; in test [1] (5 mM, 24 hours), 7.14 normalized fluorescence units vs housekeeping gene 18s rRNA; in test [1] (10 mM, 3 hours) it was 6.90 normalized fluorescence units vs housekeeping gene 18s rRNA; in test [1] (10 mM, 24 hours), 6.45 normalized fluorescence units vs housekeeping gene 18s rRNA.
Turning to `COc1cc(/C=C/C(=O)CC(=O)/C=C/c2ccc(O)c(OC)c2)ccc1O` [curcumin, Curcumin], the “Expression of COX2” value in test [2] (3 μM) is 5.00 normalized fluorescence units vs housekeeping gene 18s rRNA; in test [2] (6 μM) it was 4.90 normalized fluorescence units vs housekeeping gene 18s rRNA. Besides, the “COX2 expression after oxidative insult” value in test [1] (3 μM, 3 hours) is on record as 5.76 normalized fluorescence units vs housekeeping gene 18s rRNA; in test [1] (3 μM, 24 hours), 5.00 normalized fluorescence units vs housekeeping gene 18s rRNA; in test [1] (6 μM, 3 hours) it was 5.45 normalized fluorescence units vs housekeeping gene 18s rRNA; in test [1] (6 μM, 24 hours), 4.90 normalized fluorescence units vs housekeeping gene 18s rRNA; in test [1] (9 μM, 3 hours), 5.10 normalized fluorescence units vs housekeeping gene 18s rRNA; in test [1] (9 μM, 24 hours), 4.78 normalized fluorescence units vs housekeeping gene 18s rRNA.

Values taken from patent publication US20090098226A1, “COMPOSITION FOR COSMETIC OR PHARMACEUTICAL-DERMATOLOGICAL USE” (priority 2006, published 2009).
